These are literature values, as cited in PMC7155743 (The journal of physical chemistry. B, 2019).

Entries after “also recorded” stand apart in the source; their conditions may differ.

For data set [1] the following is noted: aqueous solution.
Test in data set [2]: not given
This is another data set of the same source.

For D2Q10K2 [DQ10], the “appearance of peptide in water at 1 mg/mL” value is “clear solutions”. The “aggregation state by DOSY” value in data set [1] is given as “predominately monomeric; also recorded: predominantly monomeric”. Regarding D2Q10K2 [NDQ10], the “appearance of peptide in water at 1 mg/mL” value is recorded as “clear solutions”. In data set [1], the “aggregation state by DOSY” value is on record as “predominately monomeric; also recorded: predominantly monomeric”. For K2Q9PGQ4AQ4PGQ9PGQ9K2 [NDPGQ9A], the “fibrillization after incubation in water for 3 h” value in data set [2] (water, 3 h) is “do not observe signs of NDPGQ9A fibrillization”. K2Q9PGQ4AQ4PGQ9PGQ9K2 [PGQ9A]: the “solubility (qualitative)” value in data set [2] was “insoluble”.
